Reference: patent publication US8680012B2, “4-phenyl-pyrane-3,5-diones,4-phenyl-thiopyrane-3,6-diones and cyclohexanetriones as novel herbicides” (Syngenta Crop Protection LLC, priority 2006, dated 2014)

Tests used:
Type in all cases: in vivo
[1] = test system: Echinochloa crus-galli (ECHCG); experiment: Example B post-emergence herbicidal activity, glasshouse pot test; settings: 312 h, rate 250 g/ha, evaluated after 13 days, read-out: Post-emergence activity ECHCG (100=total damage to plant; 0=no damage to plant)
Procedure: (§1) Seeds of a variety of test species were sown in standard soil in pots. After cultivation for one day (pre-emergence) or after 8 days cultivation (post-emergence) under controlled conditions in a glasshouse (at 24/16° C., day/night; 14 hours light; 65% humidity), the plants were sprayed with an aqueous spray solution derived from the formulation of the technical active ingredient in acetone/water (50:50) solution containing 0.5% Tween 20 (polyoxyethelyene sorbitan monolaurate, CAS RN 9005-64-5). The test plants were then grown in a glasshouse under controlled conditions in a glasshouse (at 24/16° C., day/night; 14 hours light; 65% humidity) and watered twice daily. After 13 days for pre and post-emergence, the test was evaluated (100=total damage to plant; 0=no damage to plant).
(§2) Alopecurus myosuroides (ALOMY), Avena fatua (AVEFA), Setaria faberi (SETFA), Echinochloa crus-galli (ECHCG), Solanum nigrum (SOLNI) and Amaranthus retroflexus (AMARE)

Avena fatua (AVEFA) [2] = experiment: as above; settings: 312 h, rate 250 g/ha, evaluated after 13 days, read-out: Post-emergence activity AVEFA (100=total damage to plant; 0=no damage to plant)
Procedure: as §1, §2

[3] = test system: Amaranthus retroflexus (AMARE); experiment: as above; settings: 312 h, rate 250 g/ha, evaluated after 13 days, read-out: Post-emergence activity AMARE (100=total damage to plant; 0=no damage to plant)
Procedure: as §1, §2

[4] = test system: Alopecurus myosuroides (ALOMY); experiment: as above; settings: 312 h, rate 250 g/ha, evaluated after 13 days, read-out: Post-emergence activity ALOMY (100=total damage to plant; 0=no damage to plant)
Procedure: as §1, §2

Setaria faberi (SETFA) [5] = experiment: as above; settings: 312 h, rate 250 g/ha, evaluated after 13 days, read-out: Post-emergence activity SETFA (100=total damage to plant; 0=no damage to plant)
Procedure: as §1, §2

[6] = test system: Echinochloa crus-galli (ECHCG); experiment: Example B pre-emergence herbicidal activity, glasshouse pot test; settings: 312 h, rate 250 g/ha, evaluated after 13 days, read-out: Pre-emergence activity ECHCG (100=total damage to plant; 0=no damage to plant)
Procedure: as §1, §2

Avena fatua (AVEFA) [7] = experiment: as above; settings: 312 h, rate 250 g/ha, evaluated after 13 days, read-out: Pre-emergence activity AVEFA (100=total damage to plant; 0=no damage to plant)
Procedure: as §1, §2

[8] = test system: Amaranthus retroflexus (AMARE); experiment: as above; settings: 312 h, rate 250 g/ha, evaluated after 13 days, read-out: Pre-emergence activity AMARE (100=total damage to plant; 0=no damage to plant)
Procedure: as §1, §2

[9] = test system: Alopecurus myosuroides (ALOMY); experiment: as above; settings: 312 h, rate 250 g/ha, evaluated after 13 days, read-out: Pre-emergence activity ALOMY (100=total damage to plant; 0=no damage to plant)
Procedure: as §1, §2

Setaria faberi (SETFA) [10] = experiment: as above; settings: 312 h, rate 250 g/ha, evaluated after 13 days, read-out: Pre-emergence activity SETFA (100=total damage to plant; 0=no damage to plant)
Procedure: as §1, §2

SMILES | pest or weed control at 250 g/ha [1] | pest or weed control at 250 g/ha (Avena fatua (AVEFA) [2]) | pest or weed control at 250 g/ha [3] | pest or weed control at 250 g/ha [4] | pest or weed control at 250 g/ha (Setaria faberi (SETFA) [5]) | pest or weed control at 250 g/ha [6] | pest or weed control at 250 g/ha (Avena fatua (AVEFA) [7]) | pest or weed control at 250 g/ha [8] | pest or weed control at 250 g/ha [9] | pest or weed control at 250 g/ha (Setaria faberi (SETFA) [10])
CCc1ccc(-c2ccc(Cl)cc2Cl)cc1C1=C(O)C(C)(C)OC(C)C1=O (single isomer, unassigned) [Compound A-71] | 100% | 30% | 100% | 30% | 100% | 80% | 20% | 0% | 40% | 100%
CC[C@]12CC[C@H](O1)C(=O)C(c1cc(-c3ccc(Cl)cc3)ccc1C)=C2O (single isomer, unassigned) [Compound A-80] | 100% | 0% | 0% | 30% | 90% | 40% | 0% | 0% | 30% | 70%
CCc1ccc(-c2ccc(Cl)cc2)cc1C1=C(O)[C@@]2(C)CC[C@](C)(O2)C1=O (single isomer, unassigned) [Compound A-83] | 100% | 80% | 0% | 80% | 100% | 90% | 40% | 0% | 50% | 100%
CCc1ccc(-c2ccc(Cl)c(Cl)c2)cc1C1=C(O)[C@@]2(C)CC[C@H](O2)C1=O (single isomer, unassigned) [Compound A-123] | 100% | 70% | 0% | 90% | 100% | 70% | 80% | 0% | 50% | 100%
CCOC[C@]12CC[C@H](O1)C(=O)C(c1cc(-c3ccc(Cl)cc3)ccc1CC)=C2O (single isomer, unassigned) [Compound A-124] | 100% | 90% | 20% | 80% | 100% | 70% | 60% | 0% | 50% | 100%
CCc1ccc(-c2ccc(Cl)c(F)c2)cc1C1=C(O)[C@@]2(C)CC[C@H](O2)C1=O (single isomer, unassigned) [Compound A-125] | 100% | 90% | 0% | 100% | 100% | 90% | 80% | 0% | 70% | 100%
CCOC[C@]12CC[C@H](O1)C(=O)C(c1cc(-c3ccc(Cl)c(F)c3)ccc1CC)=C2O (single isomer, unassigned) [Compound A-126] | 100% | 90% | 0% | 70% | 100% | 80% | 90% | 0% | 30% | 100%
CCc1ccc(-c2ccc(Cl)cc2Cl)cc1C1=C(O)[C@@]2(C)CC[C@H](O2)C1=O (single isomer, unassigned) [Compound A-128] | 100% | 90% | 0% | 80% | 100% | 70% | 80% | 0% | 40% | 90%
CCOC[C@]12CC[C@H](O1)C(=O)C(c1cc(-c3ccc(Cl)c(Cl)c3)ccc1CC)=C2O (single isomer, unassigned) [Compound A-129] | 90% | 80% | 0% | 70% | 80% | 40% | 30% | 0% | 20% | 90%
CCc1ccc(-c2ccc(Cl)cc2Cl)cc1C1=C(O)C(C)(C)SC(C)(C)C1=O (single isomer, unassigned) [Compound C-4] | 70% | 30% | 20% | 60% | 70% | 0% | 0% | 0% | 0% | 0%
CCc1ccc(-c2ccc(Cl)c(F)c2)cc1C1=C(O)C(C)(C)SC(C)(C)C1=O (single isomer, unassigned) [Compound C-5] | 100% | 70% | 0% | 70% | 90% | 0% | 0% | 0% | 0% | 0%
Cc1ccc(-c2ccc(Cl)cc2Cl)cc1C1=C(O)C(C)(C)[S+]([O-])C(C)(C)C1=O (single isomer, unassigned) [Compound C-7] | 60% | 0% | 0% | 20% | 30% | 0% | 0% | 0% | 0% | 0%
Cc1ccc(-c2ccc(Cl)c(F)c2)cc1C1=C(O)C(C)(C)SC(C)(C)C1=O (single isomer, unassigned) [Compound C-9] | 70% | 40% | 0% | 50% | 10% | 0% | 0% | 0% | 0% | 0%
Cc1ccc(-c2cnc(N)nc2)cc1C1=C(O)C(C)(C)OC(C)(C)C1=O [Compound A-104] | – | – | – | – | – | 0% | 0% | 0% | 0% | 0%
Cc1ccc(-c2cc[n+]([O-])cc2)cc1C1=C(O)C(C)(C)OC(C)(C)C1=O [Compound A-105] | – | – | – | – | – | 0% | 0% | 0% | 0% | 0%
